Measurements from patent US20240074996A1, “C5 KETONE COMPOSITIONS AND RELATED METHODS FOR TREATING METABOLIC DYSFUNCTION” (Keto Innovations, LLC, priority 2018, published 2024).
Read-outs that look alike come from different tables or passages of the source.

Key:
[1] = cited from earlier work
[2] = Visual analog scale of well-being after BHP or BKP (Example 1); format: in vivo, human; settings: scale 1-10, 10 g oral, 12 h fast
Procedure: (§1) Two (2) healthy, male subjects reported to the laboratory following a 12 hour overnight fast. Subjects were instructed to randomly consume either 10 grams of BHP or 10 grams BKP dissolved in 12 ounces of water. Subjects were then monitored for 150 minutes following drinking the mixture. Blood glucose, ketones, and visual analog scales (VAS) of well-being, energy, and focus were taken at 0, 30, 60, 90, 120, and 150 minutes. VAS scales consisted of a continuum of numbers from 1-10 with 1 being extremely low and 10 being extremely high.

[3] = Borg Rating of Perceived Exertion during cycling exercise (Example 2); format: in vivo, human; settings: 10 grams
From the text: The purpose of this experiment was to see if C5 ketones could lower exertion during moderate and high intensity cycling exercise. Five (5) college aged males were given a placebo or BKP (10 grams) prior to and during 2-minute low, moderate and high intensity cycling bouts. […] Perceived exertion is how hard one feels like the body is working.

[4] = Visual analog scale of focus after BHP or BKP (Example 1); format: in vivo, human; settings: scale 1-10, 10 g oral, 12 h fast
Procedure: as §1

[5] = Blood glucose after oral BHP or BKP (Example 1); format: in vivo, human; settings: 10 g oral in water, 12 h fast
Procedure: as §1
(§2) Blood ketones were measured via finger prick using an Abbott Precision device which determines mMol of BHB. Blood glucose was measured using Abbott Precision glucose strips and was measured in mg/dL.

[6] = Visual analog scale of energy after BHP or BKP (Example 1); format: in vivo, human; settings: scale 1-10, 10 g oral, 12 h fast
Procedure: as §1

[7] = Blood ketones (BHB, Abbott Precision) after oral BHP or BKP (Example 1); format: in vivo, human; settings: 10 g oral in water, 12 h fast
Procedure: as §1, §2

CC[C@@H](O)CC(=O)O [(R)-B-hydroxypentanoate]
Utilisation after intravenous administration ([1]; nondiabetic animals, intravenous, doses corresponding to 75% of the energy requirement (Leclerc et al 1995)): very rapidly used

CCC(=O)CC(=O)O [BKP, β-ketopentanoate]
VAS of Well-Being ([2]; Combined, 0 min.): 6.5
VAS of Well-Being ([2]; Combined, 30 min.): 6.5
VAS of Well-Being ([2]; Combined, 60 min.): 7.5
VAS of Well-Being ([2]; Combined, 90 min.): 7.5
VAS of Well-Being ([2]; Combined, 120 min.): 8
VAS of Well-Being ([2]; Combined, 150 min.): 8
VAS of Well-Being ([2]; Subject 1, 0 min.): 7
VAS of Well-Being ([2]; Subject 1, 30 min.): 7
VAS of Well-Being ([2]; Subject 1, 60 min.): 9
VAS of Well-Being ([2]; Subject 1, 90 min.): 9
VAS of Well-Being ([2]; Subject 1, 120 min.): 9
VAS of Well-Being ([2]; Subject 1, 150 min.): 9
VAS of Well-Being ([2]; Subject 2, 0 min.): 6
VAS of Well-Being ([2]; Subject 2, 30 min.): 6
VAS of Well-Being ([2]; Subject 2, 60 min.): 6
VAS of Well-Being ([2]; Subject 2, 90 min.): 6
VAS of Well-Being ([2]; Subject 2, 120 min.): 7
VAS of Well-Being ([2]; Subject 2, 150 min.): 7
Rating of Perceived Exertion (RPE) High Intensity ([3]; college aged males, 2-minute cycling bout, High Intensity): 17 ± 2
Rating of Perceived Exertion (RPE) Low Intensity ([3]; college aged males, 2-minute cycling bout, Low Intensity): 9 ± 1
Rating of Perceived Exertion (RPE) Moderate Intensity ([3]; college aged males, 2-minute cycling bout, Moderate Intensity): 13 ± 2
Rating of Perceived Exertion (RPE) 30 min.-Post ([3]; college aged males, cycling, 30 min.-Post): 8 ± 1
Rating of Perceived Exertion (RPE) Baseline ([3]; college aged males, cycling, Baseline): 7 ± 1
Perceived exertion compared to a placebo ([3]; moderate and high intensity cycling): lower perceived exertion at both moderate and high intensity exercise
VAS of Focus ([4]; Combined, 0 min.): 5.5
VAS of Focus ([4]; Combined, 30 min.): 5.5
VAS of Focus ([4]; Combined, 60 min.): 6
VAS of Focus ([4]; Combined, 90 min.): 6.5
VAS of Focus ([4]; Combined, 120 min.): 7
VAS of Focus ([4]; Combined, 150 min.): 7
VAS of Focus ([4]; Subject 1, 0 min.): 6
VAS of Focus ([4]; Subject 1, 30 min.): 5
VAS of Focus ([4]; Subject 1, 60 min.): 7
VAS of Focus ([4]; Subject 1, 90 min.): 7
VAS of Focus ([4]; Subject 1, 120 min.): 7
VAS of Focus ([4]; Subject 1, 150 min.): 8
VAS of Focus ([4]; Subject 2, 0 min.): 5
VAS of Focus ([4]; Subject 2, 30 min.): 6
VAS of Focus ([4]; Subject 2, 60 min.): 5
VAS of Focus ([4]; Subject 2, 90 min.): 6
VAS of Focus ([4]; Subject 2, 120 min.): 7
VAS of Focus ([4]; Subject 2, 150 min.): 6
Utilisation after intravenous administration ([1]; in vivo, iv): very rapidly used
Metabolism and tolerance in animals ([1]; in vivo): well metabolized in animals without apparent intolerance
Blood glucose levels ([5]; Combined, 0 min.): 89.5 mg/dL
Blood glucose levels ([5]; Combined, 30 min.): 87.5 mg/dL
Blood glucose levels ([5]; Combined, 60 min.): 81 mg/dL
Blood glucose levels ([5]; Combined, 90 min.): 79.5 mg/dL
Blood glucose levels ([5]; Combined, 120 min.): 87.5 mg/dL
Blood glucose levels ([5]; Combined, 150 min.): 84 mg/dL
Blood glucose levels ([5]; Subject 1, 0 min.): 88 mg/dL
Blood glucose levels ([5]; Subject 1, 30 min.): 84 mg/dL
Blood glucose levels ([5]; Subject 1, 60 min.): 79 mg/dL
Blood glucose levels ([5]; Subject 1, 90 min.): 83 mg/dL
Blood glucose levels ([5]; Subject 1, 120 min.): 85 mg/dL
Blood glucose levels ([5]; Subject 1, 150 min.): 87 mg/dL
Blood glucose levels ([5]; Subject 2, 0 min.): 91 mg/dL
Blood glucose levels ([5]; Subject 2, 30 min.): 91 mg/dL
Blood glucose levels ([5]; Subject 2, 60 min.): 83 mg/dL
Blood glucose levels ([5]; Subject 2, 90 min.): 76 mg/dL
Blood glucose levels ([5]; Subject 2, 120 min.): 90 mg/dL
Blood glucose levels ([5]; Subject 2, 150 min.): 81 mg/dL
VAS of Energy ([6]; Combined, 0 min.): 6
VAS of Energy ([6]; Combined, 30 min.): 6.5
VAS of Energy ([6]; Combined, 60 min.): 7
VAS of Energy ([6]; Combined, 90 min.): 7
VAS of Energy ([6]; Combined, 120 min.): 7.5
VAS of Energy ([6]; Combined, 150 min.): 8
VAS of Energy ([6]; Subject 1, 0 min.): 7
VAS of Energy ([6]; Subject 1, 30 min.): 7
VAS of Energy ([6]; Subject 1, 60 min.): 7
VAS of Energy ([6]; Subject 1, 90 min.): 8
VAS of Energy ([6]; Subject 1, 120 min.): 8
VAS of Energy ([6]; Subject 1, 150 min.): 9
VAS of Energy ([6]; Subject 2, 0 min.): 5
VAS of Energy ([6]; Subject 2, 30 min.): 6
VAS of Energy ([6]; Subject 2, 60 min.): 7
VAS of Energy ([6]; Subject 2, 90 min.): 6
VAS of Energy ([6]; Subject 2, 120 min.): 7
VAS of Energy ([6]; Subject 2, 150 min.): 7
Blood ketone levels ([7]; Combined, 0 min.): 0.1 mmol
Blood ketone levels ([7]; Combined, 30 min.): 0.1 mmol
Blood ketone levels ([7]; Combined, 60 min.): 0.2 mmol
Blood ketone levels ([7]; Combined, 90 min.): 0.1 mmol
Blood ketone levels ([7]; Combined, 120 min.): 0.1 mmol
Blood ketone levels ([7]; Combined, 150 min.): 0.1 mmol
Blood ketone levels ([7]; Subject 1, 0 min.): 0.1 mmol
Blood ketone levels ([7]; Subject 1, 30 min.): 0.1 mmol
Blood ketone levels ([7]; Subject 1, 60 min.): 0.2 mmol
Blood ketone levels ([7]; Subject 1, 90 min.): 0.1 mmol
Blood ketone levels ([7]; Subject 1, 120 min.): 0.1 mmol
Blood ketone levels ([7]; Subject 1, 150 min.): 0.1 mmol
Blood ketone levels ([7]; Subject 2, 0 min.): 0.1 mmol
Blood ketone levels ([7]; Subject 2, 30 min.): 0.1 mmol
Blood ketone levels ([7]; Subject 2, 60 min.): 0.2 mmol
Blood ketone levels ([7]; Subject 2, 90 min.): 0.1 mmol
Blood ketone levels ([7]; Subject 2, 120 min.): 0.1 mmol
Blood ketone levels ([7]; Subject 2, 150 min.): 0.1 mmol
